PubChem BioAssay (NCI)
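In this assay, cells in 96-well plates receive the compound at five concentrations for 48 hours. Endpoints are linearly interpolated between the surrounding concentrations. GI50 is the concentration that inhibits growth by half. TGI is the concentration that stops growth completely.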

How the values were obtained:
Assay in all cases: growth of human tumour cells (NCI), 48 h
KM12 colon = test system: KM12 colon
UACC-62 melanoma = test system: UACC-62 melanoma
NCI-H23 lung = test system: NCI-H23 lung
K-562 leukemia = test system: K-562 leukemia
RPMI-8226 leukemia = test system: RPMI-8226 leukemia
MCF7 breast = test system: MCF7 breast
NCI/ADR-RES ovarian = test system: NCI/ADR-RES ovarian
SK-MEL-2 melanoma = test system: SK-MEL-2 melanoma
HCT-15 colon = test system: HCT-15 colon
SNB-19 CNS = test system: SNB-19 CNS
BT-549 breast = test system: BT-549 breast
SF-295 CNS = test system: SF-295 CNS
DU-145 prostate = test system: DU-145 prostate
SK-MEL-5 melanoma = test system: SK-MEL-5 melanoma
SF-539 CNS = test system: SF-539 CNS
ACHN renal = test system: ACHN renal
UACC-257 melanoma = test system: UACC-257 melanoma
SK-MEL-28 melanoma = test system: SK-MEL-28 melanoma
SF-268 CNS = test system: SF-268 CNS
IGROV1 ovarian = test system: IGROV1 ovarian
CAKI-1 renal = test system: CAKI-1 renal
MDA-MB-231 breast = test system: MDA-MB-231 breast
SW-620 colon = test system: SW-620 colon
786-0 renal = test system: 786-0 renal
MDA-MB-435 = test system: MDA-MB-435
SR leukemia = test system: SR leukemia
MDA-N = test system: MDA-N
NCI-H522 lung = test system: NCI-H522 lung
OVCAR-8 ovarian = test system: OVCAR-8 ovarian
SNB-75 CNS = test system: SNB-75 CNS
T-47D breast = test system: T-47D breast
HT29 colon = test system: HT29 colon
TK-10 renal = test system: TK-10 renal
U251 CNS = test system: U251 CNS
HCC-2998 colon = test system: HCC-2998 colon
LOX IMVI melanoma = test system: LOX IMVI melanoma
HS 578T breast = test system: HS 578T breast
HOP-92 NSCLC = test system: HOP-92 NSCLC
NCI-H226 lung = test system: NCI-H226 lung
SK-OV-3 ovarian = test system: SK-OV-3 ovarian
A549 NSCLC = test system: A549 NSCLC
NCI-H460 lung = test system: NCI-H460 lung
MALME-3M melanoma = test system: MALME-3M melanoma
A498 renal = test system: A498 renal
COLO 205 colon = test system: COLO 205 colon
HCT-116 colon = test system: HCT-116 colon
SN12C renal = test system: SN12C renal
PC-3 prostate = test system: PC-3 prostate
OVCAR-4 ovarian = test system: OVCAR-4 ovarian
UO-31 renal = test system: UO-31 renal
HL-60(TB) leukemia = test system: HL-60(TB) leukemia
EKVX NSCLC = test system: EKVX NSCLC
OVCAR-5 ovarian = test system: OVCAR-5 ovarian
RXF 393 renal = test system: RXF 393 renal
M14 melanoma = test system: M14 melanoma
HOP-62 NSCLC = test system: HOP-62 NSCLC
OVCAR-3 ovarian = test system: OVCAR-3 ovarian

C=CCN(c1cc(OC)c2c(c1[N+](=O)[O-])C(C)(SC)C(=O)N2)S(C)(=O)=O (stereo unspecified)
TGI (KM12 colon): > 100 µM | TGI (UACC-62 melanoma): > 100 µM | TGI (NCI-H23 lung): > 100 µM | TGI (K-562 leukemia): > 100 µM | TGI (RPMI-8226 leukemia): > 100 µM | TGI (MCF7 breast): > 100 µM | TGI (NCI/ADR-RES ovarian): > 100 µM | TGI (SK-MEL-2 melanoma): > 100 µM | TGI (HCT-15 colon): > 100 µM | TGI (SNB-19 CNS): > 100 µM | TGI (BT-549 breast): > 100 µM | TGI (SF-295 CNS): > 100 µM | TGI (DU-145 prostate): > 100 µM | TGI (SK-MEL-5 melanoma): > 100 µM | TGI (SF-539 CNS): > 100 µM | TGI (ACHN renal): > 100 µM | TGI (UACC-257 melanoma): > 100 µM | TGI (SK-MEL-28 melanoma): > 100 µM | TGI (SF-268 CNS): > 100 µM | TGI (IGROV1 ovarian): > 100 µM | TGI (CAKI-1 renal): > 100 µM | TGI (MDA-MB-231 breast): > 100 µM | TGI (SW-620 colon): > 100 µM | TGI (786-0 renal): > 100 µM | TGI (MDA-MB-435): > 100 µM | TGI (SR leukemia): > 100 µM | TGI (MDA-N): > 100 µM | TGI (NCI-H522 lung): > 100 µM | TGI (OVCAR-8 ovarian): > 100 µM | TGI (SNB-75 CNS): > 100 µM | TGI (T-47D breast): > 100 µM | TGI (HT29 colon): > 100 µM | TGI (TK-10 renal): > 100 µM | TGI (U251 CNS): > 100 µM | TGI (HCC-2998 colon): > 100 µM | TGI (LOX IMVI melanoma): > 100 µM | TGI (HS 578T breast): > 100 µM | TGI (HOP-92 NSCLC): > 100 µM | TGI (NCI-H226 lung): > 100 µM | TGI (SK-OV-3 ovarian): > 100 µM | TGI (A549 NSCLC): > 100 µM | TGI (NCI-H460 lung): > 100 µM | TGI (MALME-3M melanoma): > 100 µM | TGI (A498 renal): > 100 µM | TGI (COLO 205 colon): > 100 µM | TGI (HCT-116 colon): > 100 µM | TGI (SN12C renal): > 100 µM | TGI (PC-3 prostate): > 100 µM | TGI (OVCAR-4 ovarian): > 100 µM | TGI (UO-31 renal): > 100 µM

CCOC(=O)/C=C(/C(=O)OCC)n1ccc(=O)n(CC(=O)OCC)c1=O
TGI (KM12 colon): 7.95 µM | GI50 (HL-60(TB) leukemia): 0.191 µM | TGI (HL-60(TB) leukemia): 0.483 µM | TGI (UACC-62 melanoma): 3.24 µM | TGI (NCI-H23 lung): 3.77 µM | TGI (K-562 leukemia): 1.62 µM | GI50 (RPMI-8226 leukemia): 1.77 µM | TGI (RPMI-8226 leukemia): 4.35 µM | TGI (MCF7 breast): 1.84 µM | TGI (NCI/ADR-RES ovarian): 8.14 µM | TGI (EKVX NSCLC): 4.87 µM | TGI (SK-MEL-2 melanoma): 12.1 µM | TGI (HCT-15 colon): 1.84 µM | TGI (OVCAR-5 ovarian): 3.19 µM | TGI (SNB-19 CNS): 25.4 µM | TGI (BT-549 breast): 4.61 µM | TGI (SF-295 CNS): 28.1 µM | TGI (DU-145 prostate): 17.1 µM | TGI (SK-MEL-5 melanoma): 6.21 µM | TGI (SF-539 CNS): 7.88 µM | TGI (ACHN renal): 1.76 µM | TGI (UACC-257 melanoma): 7.72 µM | TGI (SK-MEL-28 melanoma): 3.32 µM | TGI (SF-268 CNS): 10.9 µM | TGI (IGROV1 ovarian): 3.33 µM | TGI (CAKI-1 renal): 0.32 µM | TGI (MDA-MB-231 breast): 4.41 µM | TGI (SW-620 colon): 0.707 µM | TGI (786-0 renal): 1.67 µM | TGI (MDA-MB-435): 3.64 µM | TGI (SR leukemia): 3.61 µM | TGI (RXF 393 renal): 2.52 µM | TGI (M14 melanoma): 2.73 µM | TGI (MDA-N): 8.31 µM | TGI (NCI-H522 lung): 0.624 µM | TGI (OVCAR-8 ovarian): 6.41 µM | TGI (SNB-75 CNS): 7.92 µM | TGI (T-47D breast): 2.55 µM | TGI (HT29 colon): 3.24 µM | TGI (TK-10 renal): 2.52 µM | TGI (U251 CNS): 8.03 µM | TGI (HCC-2998 colon): 5.04 µM | GI50 (LOX IMVI melanoma): 0.422 µM | TGI (LOX IMVI melanoma): 1.81 µM | TGI (HS 578T breast): 26.4 µM | TGI (HOP-92 NSCLC): 1.46 µM | TGI (NCI-H226 lung): 5.31 µM | TGI (SK-OV-3 ovarian): 27.6 µM | TGI (A549 NSCLC): 16.8 µM | TGI (NCI-H460 lung): 15.1 µM | TGI (MALME-3M melanoma): 1.71 µM | TGI (A498 renal): 28 µM | TGI (HOP-62 NSCLC): 34.7 µM | GI50 (COLO 205 colon): 0.361 µM | TGI (COLO 205 colon): 1.63 µM | TGI (HCT-116 colon): 2.57 µM | GI50 (SN12C renal): 2 µM | TGI (SN12C renal): 4.61 µM | TGI (PC-3 prostate): 3.22 µM | TGI (OVCAR-3 ovarian): 2.44 µM | TGI (UO-31 renal): 3.03 µM
